From PMC2033546, “Effects of somatostatin analogue RC-160 and bombesin/gastrin-releasing peptide antagonists on the growth of human small-cell and non-small-cell lung carcinomas in nude mice” (British Journal of Cancer, 1994)

Key:
[1] = tested on: EGF receptor levels in tumour membranes (pancreatic, prostatic, mammary and colorectal cancers); conditions: associated with inhibition of growth of pancreatic, ref Radulovic et al., 1991b, Szepeshazi et al., 1991, 1992, Pinski et al., 1994a; cited from earlier work
Source text: (§1) Br. J. Cancer (1994). 70, 886 892 ? Macmillan Press Ltd..

EGF receptors = conditions: various cancer lines and cancer specimens; ref Liebow et al., 1992; cited from earlier work
Source text: as §1

[2] = tested on: EGF receptors in membranes of SCLC H69 tumours; assay: EGF receptor binding on H69 tumour membranes after in vivo treatment; set-up: species or system human; conditions: Table IV, Experiment I (SCLC-H69); tumour membranes after in vivo treatment; control 278; ten-point displacement in triplicate tubes, done once
Source text: (§2) Br. J. Cancer (1994). 70, 886 892 ? Macmillan Press Ltd.. […] Bombesin GRP antagonists. […] Lung carcinoma is the leading cause of cancer-related deaths in the western world. It is estimated that in 1992 there were approximately 168,000 new cases of lung cancer in the US and that about 146,000 deaths occurred from this disease (Boring et al., 1992). […] The growth factors such as bombesin/gastrin-releasing pep- tide (GRP), epidermal growth factor, (EGF), transforming growth factor a (TGF-x) and insulin-like growth factor I(IGF-I) appear to play a role in the proliferation and pro- gression of lung cancer (Cuttitta et al., 1985; Veale et al., 1987; Minuto et al., 1988; Siegfried & Owens, 1988; Macaulay et al., 1990; Tateishi et al., 1991; Damstrup et al., 1992; Sethi & Rozengurt, 1992; Rabiasz et al., 1992; Moody & Cuttitta, 1993). […] Tpi is 2,3,4,9-tetrahydro- Correspondence: A.V. Schally (151). VA Medical Center, 1601 Per- dido Street. New Orleans, LA 70146. USA. Received 1 March 1994; and in revised form 5 July 1994. Br. J. Cancer (1994), 70, 886-892 C Macmillan Press Ltd., 1994 PEPTIDE ANALOGUES IN LUNG CANCER 8U7 lH-pyrido [3,4bjindol-3-carboxylic acid, a conformationally constrained secondary amine derivate of tryptophan and Tac is thiazolidine-4-carboxylic acid. […] Animals Male athymic NCr nulmu nude mice, approximately 6 weeks old on arrival, were obtained from the NCI (Bethesda, MD, USA) and maintained under pathogen-limited conditions. Cell lines The human SCLC cell line NCI-H69, was obtained from the American Type Cell Culture (ATCC), Rockville, MD, USA and the non-SCLC cell line NCI-H157, from Dr H. Oie, NCI-Navy Medical Oncology Branch, Bethesda, MD, USA. These cell lines were cultured in RPMI-1640 medium supple- mented with 4 mM L-glutamine, 50 units ml-I penicilln G sodium, SOigml-' streptomycin sulphate, 0.125pgml-' amphotericin B and 10% fetal bovine serum at 3TC in a humidified 95% air/5% carbon dioxide atmosphere. CeLs were passaged weekly and routinely monitored for myco- plasma contamination using a detection kit (Boehringer- Mannheim, Mannheim, Germany). All culture media com- ponents were purchased from Gibco (Grand Island, NY, USA). Receptor assays Preparation of membranes for receptor studies was described previously (Halmos et al., 1993). Iodinated EGF and IGF-I were purchased from Amersham (Arlington Heights, IL, USA). Radioiodination of other peptides and receptor bind- ing of EGF, IGF-I, somatostatin and bombesin/GRP were performed as previously described (Srkalovic et al., 1989; Szepeshazi et al., 1992). Complete displacement assays on tumour membranes were done only once because of the shortage of tumour material. The LIGAND PC computerised curve-fitting programme of Munson and Rodbard (1980) was used to determine the types of receptor binding, dissociation constant (Kd) values, and the maximal binding capacity (BDj) of receptors. […] The number of mitotic and apoptotic cells per 1,000 cells was determined, and the percentage area of necrosis in tumour sections was examined using the point-counting method (Szepeshazi et al., 1991, 1992), in which the crossing points of an ocular net that coincide with necrosis in various sections are counted. Radiommunoassays Serum levels of growth hormone were determined by double- antibody radioimmunoassay (RIA) using materials supplied by the National Hormone and Pituitary Program of the National Institute of Diabetes and Digestive and Kidney Diseases (NIDDK).

[3] = tested on: IGF-I receptors in membranes of SCLC H69 tumours; assay: IGF-I receptor binding on H69 tumour membranes after in vivo treatment; set-up: species or system human; conditions: Table IV, Experiment I (SCLC-H69), control 294, done once
Source text: as §2, with “USA).” for “USA). Receptor assays Preparation of membranes for receptor studies was described previously (Halmos et al., 1993). Iodinated EGF and IGF-I were purchased from Amersham (Arlington Heights, IL, USA). Radioiodination of other peptides and receptor bind- ing of EGF, IGF-I, somatostatin and bombesin/GRP were performed as previously described (Srkalovic et al., 1989; Szepeshazi et al., 1992). Complete displacement assays on tumour membranes were done only once because of the shortage of tumour material. The LIGAND PC computerised curve-fitting programme of Munson and Rodbard (1980) was used to determine the types of receptor binding, dissociation constant (Kd) values, and the maximal binding capacity (BDj) of receptors.”

[4] = tested on: Bombesin/GRP receptors in membranes of SCLC H69 tumours; assay: Bombesin/GRP receptor binding on H69 tumour membranes after in vivo treatment; set-up: species or system human; conditions: after in vivo treatment
Source text: as §2

[5] = tested on: human SCLC cell line NCI-H69; assay: Growth of H69 SCLC xenografts in nude mice; format: in vivo, human (xenograft in male athymic nude mice)
Source text: (§3) Br. J. Cancer (1994). 70, 886 892 ? Macmillan Press Ltd.. […] Bombesin GRP antagonists. […] Lung carcinoma is the leading cause of cancer-related deaths in the western world. It is estimated that in 1992 there were approximately 168,000 new cases of lung cancer in the US and that about 146,000 deaths occurred from this disease (Boring et al., 1992). […] The growth factors such as bombesin/gastrin-releasing pep- tide (GRP), epidermal growth factor, (EGF), transforming growth factor a (TGF-x) and insulin-like growth factor I(IGF-I) appear to play a role in the proliferation and pro- gression of lung cancer (Cuttitta et al., 1985; Veale et al., 1987; Minuto et al., 1988; Siegfried & Owens, 1988; Macaulay et al., 1990; Tateishi et al., 1991; Damstrup et al., 1992; Sethi & Rozengurt, 1992; Rabiasz et al., 1992; Moody & Cuttitta, 1993). […] Tpi is 2,3,4,9-tetrahydro- Correspondence: A.V. Schally (151). VA Medical Center, 1601 Per- dido Street. New Orleans, LA 70146. USA. Received 1 March 1994; and in revised form 5 July 1994. Br. J. Cancer (1994), 70, 886-892 C Macmillan Press Ltd., 1994 PEPTIDE ANALOGUES IN LUNG CANCER 8U7 lH-pyrido [3,4bjindol-3-carboxylic acid, a conformationally constrained secondary amine derivate of tryptophan and Tac is thiazolidine-4-carboxylic acid. […] Animals Male athymic NCr nulmu nude mice, approximately 6 weeks old on arrival, were obtained from the NCI (Bethesda, MD, USA) and maintained under pathogen-limited conditions. Cell lines The human SCLC cell line NCI-H69, was obtained from the American Type Cell Culture (ATCC), Rockville, MD, USA and the non-SCLC cell line NCI-H157, from Dr H. Oie, NCI-Navy Medical Oncology Branch, Bethesda, MD, USA. These cell lines were cultured in RPMI-1640 medium supple- mented with 4 mM L-glutamine, 50 units ml-I penicilln G sodium, SOigml-' streptomycin sulphate, 0.125pgml-' amphotericin B and 10% fetal bovine serum at 3TC in a humidified 95% air/5% carbon dioxide atmosphere. CeLs were passaged weekly and routinely monitored for myco- plasma contamination using a detection kit (Boehringer- Mannheim, Mannheim, Germany). All culture media com- ponents were purchased from Gibco (Grand Island, NY, USA). Receptor assays Preparation of membranes for receptor studies was described previously (Halmos et al., 1993). Iodinated EGF and IGF-I were purchased from Amersham (Arlington Heights, IL, USA). Radioiodination of other peptides and receptor bind- ing of EGF, IGF-I, somatostatin and bombesin/GRP were performed as previously described (Srkalovic et al., 1989; Szepeshazi et al., 1992). Complete displacement assays on tumour membranes were done only once because of the shortage of tumour material. The LIGAND PC computerised curve-fitting programme of Munson and Rodbard (1980) was used to determine the types of receptor binding, dissociation constant (Kd) values, and the maximal binding capacity (BDj) of receptors. In order to determine the specificity of the binding sites for radiolabelled EGF, IGF-I, somatostatin and bombesin to lung cancer membranes, various structuraly related and unrelated peptides were tested for their ability to inhibit the binding of the tracers. Histological procedure The histological procedures were the same as described previously (Szepeshazi et al., 1991, 1992). The number of mitotic and apoptotic cells per 1,000 cells was determined, and the percentage area of necrosis in tumour sections was examined using the point-counting method (Szepeshazi et al., 1991, 1992), in which the crossing points of an ocular net that coincide with necrosis in various sections are counted. Radiommunoassays Serum levels of growth hormone were determined by double- antibody radioimmunoassay (RIA) using materials supplied by the National Hormone and Pituitary Program of the National Institute of Diabetes and Digestive and Kidney Diseases (NIDDK).

SCLC H69 tumours = assay: Histology (mitosis, apoptosis, necrosis) of SCLC H69 tumours; format: in vivo, human (xenograft in nude mice)
Source text: as §3

[6] = tested on: non-SCLC cell line NCI-H157; assay: Growth of H157 non-SCLC xenografts in nude mice; format: in vivo, human (xenograft in male athymic nude mice); conditions: RC-160 100 µg/day, RC-3095 20 µg/day
Source text: as §3

[7] = tested on: IGF-I receptors in membranes of non-SCLC H157 tumours; assay: IGF-I receptor binding on H157 tumour membranes after in vivo treatment; set-up: species or system human
Source text: as §2, with “USA).” for “USA). Receptor assays Preparation of membranes for receptor studies was described previously (Halmos et al., 1993). Iodinated EGF and IGF-I were purchased from Amersham (Arlington Heights, IL, USA). Radioiodination of other peptides and receptor bind- ing of EGF, IGF-I, somatostatin and bombesin/GRP were performed as previously described (Srkalovic et al., 1989; Szepeshazi et al., 1992). Complete displacement assays on tumour membranes were done only once because of the shortage of tumour material. The LIGAND PC computerised curve-fitting programme of Munson and Rodbard (1980) was used to determine the types of receptor binding, dissociation constant (Kd) values, and the maximal binding capacity (BDj) of receptors.”

[8] = tested on: Somatostatin receptors in membranes of SCLC H69 tumours; assay: Somatostatin receptor binding on H69 tumour membranes after in vivo treatment; set-up: species or system human; conditions: Table IV, Experiment I (SCLC-H69); tumour membranes after in vivo treatment; control 450; done once
Source text: as §2

[9] = tested on: EGF receptors in membranes of non-SCLC H157 tumours; assay: EGF receptor binding on H157 tumour membranes after in vivo treatment; set-up: species or system human
Source text: as §2, with “USA).” for “USA). Receptor assays Preparation of membranes for receptor studies was described previously (Halmos et al., 1993). Iodinated EGF and IGF-I were purchased from Amersham (Arlington Heights, IL, USA). Radioiodination of other peptides and receptor bind- ing of EGF, IGF-I, somatostatin and bombesin/GRP were performed as previously described (Srkalovic et al., 1989; Szepeshazi et al., 1992). Complete displacement assays on tumour membranes were done only once because of the shortage of tumour material. The LIGAND PC computerised curve-fitting programme of Munson and Rodbard (1980) was used to determine the types of receptor binding, dissociation constant (Kd) values, and the maximal binding capacity (BDj) of receptors.”

## [D-Tpi6, Leu'3, *(CH2NH)Leu'4] bombesin (6- 14) [RC-3095]
[1]
  EGF receptor levels in tumour membranes (in words): major decrease in EGF receptor levels
EGF receptors
  Effect on phosphorylation of EGF receptors (in words): inhibits these effects
[2]
  EGF maximal binding capacity (Bmax): 102 fmol mg' protein
[3]
  IGF-I maximal binding capacity (Bmax): 300 fmol mg' protein
[4]
  Concentration of receptors for bombesin/GRP on H69 tumours (in words): reduced to non-detectable levels
[5]; Table I, Experiment I (SCLC-H69), 5 weeks s.c. peritumoral, RC-160 100 µg/day, RC-3440, RC-3095, RC-3950-II 20 µg/day per animal, control 249.7 ? 182.3, means ? s.d., ten animals per group, *P<0.05 vs control
  Tumour volume, final: 80.2 mm³
[5]; Table I, Experiment I (SCLC-H69), 5 weeks s.c. peritumoral, RC-160 100 µg/day, antagonists 20 µg/day per animal, control 0.27 ? 0.19, means ? s.d., *P<0.05 vs control
  Tumour weight: 0.081 0.06* g
[5]; Table I, Experiment I (SCLC-H69), 5 weeks, RC-160 100 µg/day, antagonists 20 µg/day per animal s.c., control 7.5
  Tumour doubling time: 12.2 days
[5]; s.c. peritumorally, RC-160 100 µg, bombesin/GRP antagonists 20 µg per animal per day, 5 weeks
  Growth of H69 SCLC tumours (in words): inhibited the growth of H69 SCLC tumours
SCLC H69 tumours; SCLC H69 tumours, point-counting method, differences from control not significant statistically
  Extent of necrosis (in words): less exten- sive
SCLC H69 tumours; Table II, Experiment I (SCLC H69), apoptotic cells per 1,000 cells, control 35.4 ? 2.6, means ? s.e.
  Apoptotic index: 36.5
SCLC H69 tumours; Table II, Experiment I (SCLC H69), mitotic cells per 1,000 cells, control 37.9 ? 2.9, means ? s.e., *P < 0.05 vs control
  Mitotic index: 28.8
[6]; 4 weeks s.c., SB-75 100 µg/day per animal, vs control
  Growth of H157 non-SCLC tumours (in words): No significant reduction in final tumour volume, tumour weight and tumour growth
[6]; Table I, Experiment II (non-SCLC H157), 4 weeks s.c. peritumoral, SB-75 100 µg/day per animal, control 1580.3 ? 455.7, means ? s.d., ten animals per group, *P<0.05 vs control
  Tumour volume, final: 913 mm³
[6]; Table I, Experiment II (non-SCLC H157), 4 weeks s.c., SB-75 100 µg/day, control 3.88
  Tumour doubling time: 4.42 days
[7]; Table IV, Experiment II (non-SCLC H157), tumour membranes after in vivo treatment, control 257, done once
  IGF-I maximal binding capacity (Bmax): 270 fmol mg' protein
[7]; after in vivo treatment
  IGF-I binding sites on H157 tumours (in words): no effect
[8]
  Somatostatin maximal binding capacity (Bmax): 480 fmol mg-'protein
[9]; Table IV, Experiment II (non-SCLC H157), tumour membranes after in vivo treatment, control 249, done once
  EGF maximal binding capacity (Bmax): 207 fmol mg' protein
[9]; after in vivo treatment
  EGF binding capacity on H157 tumours (in words): no effect
